Experimental data published in patent US5945436A, “Pyridylmethyl nitriles, amides and thioamides useful as fungicides” (Uniroyal Chemical Company, Inc., priority 1997, dated 1999).

Key:
Erysiphe cichoracearum = test: Powdery mildew of cucumber, systemic root uptake (CMS); format: in vivo; settings: 45 ml of 250 mg/l, 8 days after inoculation
Protocol: Compositions containing Compounds Nos. 1-81 were prepared by dissolving 0.24 grams of each of the compounds in 8 ml of acetone or other suitable inert solvent. Each of the resultant solutions was treated with 3 drops of TWEEN 20 (ethoxylated ethylene sorbitan monolaurate, a non-ionic surfactant)(I.C.I.), and water was added to form an emulsion. The degree of dilution with water was dictated by the desired concentration of the compound in the composition. The greater the quantity of water added, the lower the concentration of the compound in the composition, reported in milligrams per liter (mg/l) […] Upon reaching these ages, the plants were either treated with 45 ml of 250 mg/l concentration of the compositions of Example 9 or were left untreated. The untreated plants were used as controls. The 45 ml compositions saturated the soil of the treated pots without significant loss through drainage into the saucers below the pots. Twenty-four hours after the treatment with the compositions, both the barley and cucumber plants in all the pots, those treated and those untreated, were inoculated with powdery mildew fungus. This was accomplished by tapping leaves of previously infected barley and cucumber plants over the treated and untreated pots containing the barley and cucumber plants, respectively, to distribute spores of the fungus over the plants tested. […] Intermediate ratings were assigned depending on the degree of disease. […] The results of the powdery mildew disease control of barley are reported under the heading of "BMS". The results for cucumber mildew control are reported under the heading "CMS".

Erysiphe polygoni = test: Powdery mildew on pinto bean, foliar application (ERY POL); format: in vivo; settings: similar procedure as barley (1,000 mg/l); for pest or weed control at 1000 µg/mL: Erysiphe polygoni, read-out: Percent Reduction of Disease, ERY POL
Protocol: Compositions containing Compounds Nos. 1-81 were prepared by dissolving 0.24 grams of each of the compounds in 8 ml of acetone or other suitable inert solvent. Each of the resultant solutions was treated with 3 drops of TWEEN 20 (ethoxylated ethylene sorbitan monolaurate, a non-ionic surfactant)(I.C.I.), and water was added to form an emulsion. The degree of dilution with water was dictated by the desired concentration of the compound in the composition. The greater the quantity of water added, the lower the concentration of the compound in the composition, reported in milligrams per liter (mg/l) Ten plants of "Robust" variety barley were planted in each of a plurality of pots. Each pot was then either sprayed with one of the compositions of Example 9, at a composition concentration of 1,000 mg/l, or left unsprayed. For each pot sprayed, one pot was left unsprayed as a control. After the leaves of the sprayed pots were dried, the sprayed pots and the unsprayed control pots were placed in a greenhouse maintained at 21° C. All the pots were then inoculated with barley powdery mildew fungus, Erysiphe graminis. This inoculation was accomplished by distributing spores of the fungus over the leaves of the plants to be tested from plants which had previously been infected with the mildew disease. […] Again, percent control was computed by comparing the treatment scores with the scores of the untreated controls. The results are summarized in Table II under the heading "ERY GRA". Using a similar procedure as described above for the barley, pinto bean plants were prepared, treated and inoculated with the fungus Erysiphe polygoni. The results of this testing are summarized in Table II under the heading "ERY POL".

Pyricularia oryzae = test: whole plant or invertebrate; format: in vivo; settings: for pest or weed control at 1000 µg/mL: Pyricularia oryzae, in Hordeum vulgare, foliar, 216 h, read-out: Percent Reduction of Disease, PYR ORY, barley, foliar, 1,000 mg/l
Helminthosporium sativum = test: Barley spot blotch, foliar treatment (HEL SAT); format: in vivo; settings: foliar, 1,000 mg/l; for pest or weed control at 1000 µg/mL: Helminthosporium, foliar, 216 h, read-out: Percent Reduction of Disease, HEL SAT
Protocol: Compositions containing Compounds Nos. 1-81 were prepared by dissolving 0.24 grams of each of the compounds in 8 ml of acetone or other suitable inert solvent. Each of the resultant solutions was treated with 3 drops of TWEEN 20 (ethoxylated ethylene sorbitan monolaurate, a non-ionic surfactant)(I.C.I.), and water was added to form an emulsion. The degree of dilution with water was dictated by the desired concentration of the compound in the composition. The greater the quantity of water added, the lower the concentration of the compound in the composition, reported in milligrams per liter (mg/l) Ten plants of six day-old Barley (variety "Robust") were planted in each of a plurality of pots. Each pot was then either sprayed with one of the compositions of Example 9, at a concentration of 1,000 mg/l, or left unsprayed. The unsprayed plants were used as controls. An equal number of pots were sprayed and unsprayed. All plants, sprayed and unsprayed, were thereafter inoculated with spores of the blotch fungus Helminthosporium sativum. All inoculated plants were placed in a 99% humidity chamber for 24 hours and then placed in a greenhouse, maintained at a temperature of 21° C., for eight days. […] Percent control was computed and the results are summarized in Table II under the heading "HEL SAT".

[1] = tested on: Cercosporidium personatum; test: Fungal germination and growth, treated disc on agar, scored (CER PER); format: cell-based; design: key: 100: Complete inhibition of germination and growth.; 80: Nearly complete inhibition but some growth.; 50: Partial inhibition of growth or, early complete inhibition but later growth begins.; 20: Some inhibition of growth, but not significant.; 0: No inhibition of growth; settings: disc dipped in 500 mg/l, 29° C., numerical score 0-100, spore suspension
Excerpt: Filter paper discs, each 11 mm. in diameter, were dipped in each of the test solutions. The discs were allowed to air dry to drive off the acetone solvent. A number of untreated discs were used as controls. The treated and untreated discs were then placed on agar plates and one of the following fungus species: Septoria nodorum (SEP NOD), Botrytis cinerea (BOT CIN), Fusarium oxysporum (FUS OXY), Pythium ultimum ([…]), Rhizoctonia solani (RHI SOL), Colletotrichum gossypii (COL GOS), and Scierotinia minor (SCL MIN), was added to the center of each disc in the form of a culture plug with the fungus mat in contact with the paper of the test disc. Cercosporidium personatum (CER PER), was added to discs as a spore suspension (20,000 spores/ml) to the disc (two drops of spore suspension per disc), rather than a mycelial culture plug. The plates were then incubated at 29° C. in an oven. In the case of the Cercosporidium personatum (CER PER) fungi, scoring was done on a numerical basis as follows: 100=Complete inhibition of germination and growth. 80=Nearly complete inhibition but some growth. 50=Partial inhibition of growth or, early complete inhibition but later growth begins. 20=Some inhibition of growth, but not significant. 0=No inhibition of growth. The results of all the above tests appear in Table III below under the headings "SEP NOD," "BOT CIN," "FUS OXY," "[…]" "COL GOS" and "CER PER".

Pythium ultimum = test: Fungal growth inhibition, treated disc on agar (PYT ULT); format: cell-based; settings: disc dipped in 500 mg/l, 29° C.; for inhibition at 500 µg/mL: Globisporangium ultimum, read-out: Percent Growth Inhibition, PYT ULT
Scierotinia minor = test: Fungal growth inhibition, treated disc on agar (SCL MIN); format: cell-based; settings: disc dipped in 500 mg/l, 29° C.; for inhibition at 500 µg/mL: read-out: Percent Growth Inhibition, SCL MIN
Colletotrichum gossypii = test: Fungal growth inhibition, treated disc on agar (COL GOS); format: cell-based; settings: disc dipped in 500 mg/l, 29° C.; for inhibition at 500 µg/mL: Colletotrichum gossypii, read-out: Percent Growth Inhibition, COL GOS
Protocol: The treated and untreated discs were then placed on agar plates and one of the following fungus species: Septoria nodorum (SEP NOD), Botrytis cinerea (BOT CIN), Fusarium oxysporum (FUS OXY), Pythium ultimum (PYT ULT), Rhizoctonia solani (RHI SOL), Colletotrichum gossypii (COL GOS), and Scierotinia minor (SCL MIN), was added to the center of each disc in the form of a culture plug with the fungus mat in contact with the paper of the test disc. Cercosporidium personatum (CER PER), was added to discs as a spore suspension (20,000 spores/ml) to the disc (two drops of spore suspension per disc), rather than a mycelial culture plug. The plates were then incubated at 29° C. in an oven.
With the exception of the discs containing Cercosporidium personatum, the discs were evaluated by first measuring the radius from the center of the fungus colony on the treated discs and on the untreated discs. Percent growth inhibition of each of the compounds tested was determined as a function of the difference between the radius of the fungus colony on the treated disc versus the radius of the fungus colony on the untreated disc.

SMILES | Percent Reduction of Disease, CMS (Erysiphe cichoracearum) [%] | pest or weed control at 1000 µg/mL (Erysiphe polygoni) [%] | pest or weed control at 1000 µg/mL (Pyricularia oryzae) [%] | pest or weed control at 1000 µg/mL (Helminthosporium sativum) [%] | CER PER inhibition score [1] | inhibition at 500 µg/mL (Pythium ultimum) [%] | inhibition at 500 µg/mL (Scierotinia minor) [%] | inhibition at 500 µg/mL (Colletotrichum gossypii) [%] | Percent Reduction of Disease, ERY POL (Erysiphe polygoni) [%] | Percent Reduction of Disease, PYR ORY (Pyricularia oryzae; barley, foliar, 1,000 mg/l) [%] | Percent Reduction of Disease, HEL SAT (Helminthosporium sativum) [%] | Percent Growth Inhibition, PYT ULT (Pythium ultimum) [%] | Percent Growth Inhibition, SCL MIN (Scierotinia minor) [%] | Percent Growth Inhibition, COL GOS (Colletotrichum gossypii) [%]
COc1ccc(CCC(C#N)(CC=C(C)C)c2cccnc2)cc1 (centres unmarked) [Compound 48] | 0 | 90 | 33 | 100 | 50 | 53 | 100 | 100 |  |  |  |  |  | 
C#CCC(C#N)(CCc1ccccc1)c1cccnc1 (centres unmarked) [Compound 4] | 20 | 90 | 50 | 0 | 100 | 100 | 98 | 100 |  |  |  |  |  | 
CCCCCC(CCc1ccc(F)cc1)(C(N)=O)c1cccnc1 (centres unmarked) [Compound 62] | 20 | 100 | 0 | 0 | 0 | 5 | 100 | 25 |  |  |  |  |  | 
CCCCOc1ccc(CCC(C#N)(CC(C)C)c2cccnc2)cc1 (centres unmarked) [Compound 58] | 0 | 85 | 85 | 0 | 0 | 0 | 75 | 15 |  |  |  |  |  | 
CCCCCC(C#N)(CCc1ccc(OC)cc1)c1ccccn1 (centres unmarked) [Compound 30] | 0 |  |  |  | 0 |  |  |  | 100 | 100 | 90 | 0 | 100 | 80
CCCCCC(C#N)(CCc1ccccc1)c1cccnc1 (centres unmarked) [Compound 3] | 35 | 100 | 100 | 100 | 100 | 5 | 100 | 97 |  |  |  |  |  | 
CCCCCCC(C#N)(Cc1ccc(C(C)(C)C)cc1)c1cccnc1 (centres unmarked) [Compound 16] | 0 | 100 | 20 | 85 | 0 | 45 | 5 | 42 |  |  |  |  |  | 
